The values below come from patent US10065990B2, “Cyclic peptide compound, and preparation method, pharmaceutical composition and use thereof” (HANGZHOU GUANYU BIO-MEDICAL CO., LTD, priority 2013, dated 2018).

For test [1], the system named is DU145 (human prostate cancer cells). Description: MTT cancer cell growth inhibition. The class given is cell-based. The following applies: Homo sapiens, DU-145, 72 h, MTT, 72 hours incubation, read-out: GI50 Du1. The text has this:
(§1) MTT assay principle is yellow MTT can penetrate membrane into the cell, succinic dehydrogenase of the mitochondria in living cells can make exogenous MTT reduction of insoluble in water of blue-violet acicular formazan for crystallization and deposition in the cell, crystallization can be dissolved dimethyl sulfoxide (DMSO) solution, detected its absorbance at 490 nm/570 nm wavelength by enzyme-linked immunosorbent assay, which can reflect the number of cells.
(§2) Using DMEM+10% FBS culture medium or using 1640+10% FBS culture, respectively.
(§3) a) Cells were seeded in 96-well plates with the inoculation of 1500/well, 190 μl/hole, 37° C., 5% of CO2 incubator overnight;
(§4) b) The next day each well was added 10 μl of different drugs. The final concentration of drug was 10^−5˜10^−10M, three parallel holes; 37° C., 5% CO2 culture incubator for 72 hours incubation;
(§5) c) Per well was added 20 μl 5 mg/ml of MTT, 37° C., 5% CO2 culture incubator for 4 hours incubation;
(§6) d) The supernatant was discarded. Each well was added 100 μl of DMSO and oscillation;
(§7) e) 570 nm readings. Calculate cell viability. GI50 calculation based on the results.

The test system of test [2] is KBM5-T315I (human chronic myelogenous leukemia). Put plainly: MTT cancer cell growth inhibition. The class given is cell-based. To be noted: Homo sapiens, 72 h, MTT, 72 hours incubation, KBM5-T315I cells; read-out: GI50 KBM5-T315I.
Excerpt: as §1, §2, §3, §4, §5, §6, §7

In test [3] the test system is HT1080 (human fibrosarcoma cells). Description: MTT cancer cell growth inhibition. The class given is cell-based. The following applies: Homo sapiens, HT-1080, 72 h, MTT, 72 hours incubation, read-out: GI50 HT1.
Excerpt: as §1, §2, §3, §4, §5, §6, §7

Test [4] relates to KBM-5 (human chronic myelogenous leukemia). Description: MTT cancer cell growth inhibition. Format: cell-based. The following applies: Homo sapiens, KBM5, 72 h, MTT, 72 hours incubation, KBM-5 cells; read-out: GI50 KBM-5.
Excerpt: as §1, §2, §3, §4, §5, §6, §7

The subject of test [5] is MCF-7 (human breast cancer cells). Description: MTT cancer cell growth inhibition. The class given is cell-based. To be noted: Homo sapiens, MCF7, 72 h, 72 hours incubation, read-out: GI50 MCF.
Excerpt: as §1, §2, §3, §4, §5, §6, §7

The test system of test [6] is PANC-1 (Pac-1, human pancreatic cancer cells). Put plainly: MTT cancer cell growth inhibition. The following applies: Homo sapiens, PANC-1, 72 h, MTT, 72 hours incubation, read-out: GI50 PAN. Format: cell-based.
Excerpt: as §1, §2, §3, §4, §5, §6, §7

Test [7] relates to N-87 (human gastric cancer cells). Put plainly: MTT cancer cell growth inhibition. The following applies: Homo sapiens, 72 h, MTT, 72 hours incubation, N-87 cells; read-out: GI50 N-87. The class given is cell-based.
Excerpt: as §1, §2, §3, §4, §5, §6, §7

Test [8] relates to Bel-7402 (human hepatoma cells). Put plainly: MTT cancer cell growth inhibition. Format: cell-based. The following applies: Homo sapiens, Bel-7402, 72 h, MTT, 72 hours incubation, Bel-7402 cells; read-out: GI50 Bel-7402.
Excerpt: as §1, §2, §3, §4, §5, §6, §7

Test [9] concerns BGC-823 (human gastric cancer cells). Put plainly: MTT cancer cell growth inhibition. Format: cell-based. To be noted: Homo sapiens, BGC-823, 72 h, MTT, 72 hours incubation, read-out: GI50 BG.
Excerpt: as §1, §2, §3, §4, §5, §6, §7

For test [10], the system named is MDA-MB-231 (breast cancer cells). Description: MTT cancer cell growth inhibition. The following applies: Homo sapiens, MDA-MB-231, 72 h, read-out: GI50 MDA-MB-231, MTT, 72 hours incubation, MDA-MB-231 cells. Format: cell-based.
Excerpt: as §1, §2, §3, §4, §5, §6, §7

In test [11] the test system is U937 (human leukemia cells). Put plainly: MTT cancer cell growth inhibition. Format: cell-based. To be noted: Homo sapiens, U-937, 72 h, MTT, 72 hours incubation, read-out: GI50 U93.
Excerpt: as §1, §2, §3, §4, §5, §6, §7

Test [12] has as its system H1975 (non-small cell lung adenocarcinoma). Description: MTT cancer cell growth inhibition. The class given is cell-based. The following applies: Homo sapiens, NCI-H1975, 72 h, MTT, 72 hours incubation, H1975 cells; read-out: GI50 H1975.
Excerpt: as §1, §2, §3, §4, §5, §6, §7

In test [13] the test system is K562 (human leukemia cells). Description: MTT cancer cell growth inhibition. The class given is cell-based. The following applies: Homo sapiens, K562, 72 h, MTT, 72 hours incubation, K562 cells; read-out: GI50 K562.
Excerpt: as §1, §2, §3, §4, §5, §6, §7

Test [14] has as its system MOLT-4 (human acute lymphoblastic leukemia cells). Put plainly: MTT cancer cell growth inhibition. The class given is cell-based. To be noted: Homo sapiens, MOLT-4, 72 h, MTT, 72 hours incubation, read-out: GI50 Mol.
Excerpt: as §1, §2, §3, §4, §5, §6, §7

The test system of test [15] is A549 (human lung cancer cells). Put plainly: MTT cancer cell growth inhibition. Format: cell-based. The following applies: Homo sapiens, A549, 72 h, MTT, 72 hours incubation, read-out: GI50 A54.
Excerpt: as §1, §2, §3, §4, §5, §6, §7

Test [16] concerns Huh-7 (human hepatoma cells). Put plainly: MTT cancer cell growth inhibition. The class given is cell-based. The following applies: Homo sapiens, Huh-7, 72 h, MTT, 72 hours incubation, Huh-7 cells; read-out: GI50 Huh-7.
Excerpt: as §1, §2, §3, §4, §5, §6, §7

The subject of test [17] is HCC827 (human non-small cell lung cancer cells). Put plainly: MTT cancer cell growth inhibition. To be noted: Homo sapiens, HCC827, 72 h, MTT, 72 hours incubation, HCC827 cells; read-out: GI50 HCC827. The class given is cell-based.
Excerpt: as §1, §2, §3, §4, §5, §6, §7

Test [18] concerns lncap (prostate cancer cells). Put plainly: MTT cancer cell growth inhibition. To be noted: Homo sapiens, LNCaP, 72 h, MTT, 72 hours incubation, read-out: GI50 lnca. Format: cell-based.
Excerpt: as §1, §2, §3, §4, §5, §6, §7

The test system of test [19] is SGC-7901 (human gastric cancer cells). Put plainly: MTT cancer cell growth inhibition. The class given is cell-based. To be noted: Homo sapiens, SGC-7901, 72 h, MTT, 72 hours incubation, SGC-7901 cells; read-out: GI50 SGC-7901.
Excerpt: as §1, §2, §3, §4, §5, §6, §7

Test [20] deals with Hela (human cervical cancer cells). Put plainly: MTT cancer cell growth inhibition. The following applies: Homo sapiens, HeLa, 72 h, MTT, 72 hours incubation, read-out: GI50 Hela. The class given is cell-based.
Excerpt: as §1, §2, §3, §4, §5, §6, §7

For the next test, the target named is T1, HDAC7 (Homo sapiens, UniProt Q8WUI4).
T1 sequence (Q8WUI4 1-952): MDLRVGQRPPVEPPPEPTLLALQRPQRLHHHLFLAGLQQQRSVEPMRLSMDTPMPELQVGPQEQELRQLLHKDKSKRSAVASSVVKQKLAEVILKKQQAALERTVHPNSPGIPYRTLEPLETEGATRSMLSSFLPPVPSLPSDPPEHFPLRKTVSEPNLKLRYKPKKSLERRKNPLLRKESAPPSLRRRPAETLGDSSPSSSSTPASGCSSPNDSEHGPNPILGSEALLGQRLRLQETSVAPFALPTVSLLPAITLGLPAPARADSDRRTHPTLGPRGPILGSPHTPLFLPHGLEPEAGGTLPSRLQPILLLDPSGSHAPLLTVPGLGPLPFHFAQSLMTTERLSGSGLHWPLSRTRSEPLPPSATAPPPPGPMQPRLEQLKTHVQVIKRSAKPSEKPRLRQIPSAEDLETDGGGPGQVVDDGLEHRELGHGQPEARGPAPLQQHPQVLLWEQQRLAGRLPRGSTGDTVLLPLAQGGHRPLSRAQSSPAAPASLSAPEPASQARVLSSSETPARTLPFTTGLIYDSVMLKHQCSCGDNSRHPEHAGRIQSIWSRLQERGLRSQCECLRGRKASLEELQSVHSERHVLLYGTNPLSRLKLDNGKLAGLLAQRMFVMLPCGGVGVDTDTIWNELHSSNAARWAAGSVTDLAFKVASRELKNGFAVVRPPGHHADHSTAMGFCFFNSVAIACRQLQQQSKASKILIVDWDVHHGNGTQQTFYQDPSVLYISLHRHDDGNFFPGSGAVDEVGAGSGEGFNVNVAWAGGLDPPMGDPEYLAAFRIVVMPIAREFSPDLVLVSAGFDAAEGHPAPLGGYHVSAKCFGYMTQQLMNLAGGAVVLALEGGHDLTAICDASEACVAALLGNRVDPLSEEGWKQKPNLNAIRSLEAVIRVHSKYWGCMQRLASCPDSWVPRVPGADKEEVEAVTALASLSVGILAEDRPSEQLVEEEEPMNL
Put plainly: HDAC biochemical activity measurement (fluorescent substrate deacetylation).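 Further: fluorogenic deacetylation assay using acetyl-lysine substrate at 20 µM, enzyme and compound incubated 30 min at 37 °C, then developer added, fluorescence read at 360/460 nm.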 The following applies: HDAC7; 37° C. 30 minutes.

The structures appear in SMILES notation. Like-named read-outs stand apart in the source and are kept apart here.

Usually GI50 stands for the concentration giving 50% growth inhibition.

`C=C1NC(=O)c2ccc(SC)c(n2)CNC(=O)C[C@@H](/C=C/CCSC(C)=O)OC(=O)[C@H](C)NC1=O` [Compound 212]: the GI50 was 30 nM in test [1] (DU145 cells); 37 nM in test [2]; 30 nM in test [3] (HT1080 cells); 69 nM in [4]; 70 nM in test [5] (MCF-7 cells); 50 nM in test [6] (PANC-1 cells). The GI50 stood at 35 nM in test [7]; 39 nM in test [8]; 60 nM in test [9] (BGC-823 cells); 97 nM in [10]; 60 nM in test [11] (U937 cells); 62 nM in test [12]. Further, the GI50 in test [13] is 35 nM; in test [14] (MOLT-4 cells) it was 70 nM; in test [15] (A549 cells) it was 40 nM; in test [16], 57 nM; in test [17], 48 nM; in [18] (lncap cells), 80 nM. In addition, the GI50 in test [19] came out at 84 nM; in test [20] (Hela cells), 20 nM. Also, the “IC50 HDAC7” value against HDAC7 is “no activity”.
With `C/C=C1\NC(=O)c2nc(ccc2F)CNC(=O)C[C@@H](/C=C/CCS)OC(=O)[C@H](CCCCN)NC1=O` [Compound 116], the GI50 in test [1] is 20 nM; in [2] it was 36 nM; in [3], 50 nM; in test [4] it was 18 nM; in test [5], 60 nM; in test [6] it was 40 nM. Also, the GI50 is 43 nM in test [7]; 28 nM in test [8]; 50 nM in test [9]; 46 nM in test [10]; 20 nM in [11]; 93 nM in [12]. Moreover, the GI50 in test [13] came to 16 nM; in test [14], 30 nM; in test [15] it was 60 nM; in [16], 52 nM; in test [17], 21 nM; in [18], 30 nM. In addition, the GI50 in test [19] was found to be 21 nM; in [20] it was 40 nM. In addition, the “IC50 HDAC7” value at HDAC7 is “no activity”.
For the compound `C/C=C1\NC(=O)c2nc(ccc2F)CNC(=O)C[C@@H](/C=C/CCSC(=O)CCCC)OC(=O)[C@H](C(C)C)NC1=O` [Example 39], the GI50 amounted to 20 nM in [1]; 67 nM in test [2]; 80 nM in test [3]; 72 nM in test [4]; 60 nM in test [5]; 80 nM in test [6]. The GI50 in test [7] was found to be 50 nM; in [8], 83 nM; in [9], 50 nM; in test [10], 22 nM; in test [11] it was 30 nM; in [12], 35 nM. For the same compound, the GI50 came to 26 nM in test [13]; 20 nM in test [14]; 40 nM in [15]; 22 nM in [16]; 83 nM in test [17]; 20 nM in test [18]. Moreover, the GI50 in test [19] was determined as 41 nM; in test [20], 70 nM. Besides, the “IC50 HDAC7” value at HDAC7 is “no activity”.
Turning to `C/C=C1\NC(=O)c2cccc(n2)CNC(=O)C[C@@H](/C=C/CCS)OC(=O)[C@H](C)NC1=O` [Example 29], the GI50 in test [1] was found to be 70 nM; in test [2] it was 37 nM; in [3], 60 nM; in test [4] it was 43 nM; in test [5] it was 1210 nM; in [6], 80 nM. Also, the GI50 in [7] was found to be 33 nM; in test [8], 91 nM; in test [9], 90 nM; in test [10] it was 87 nM; in test [11] it was 450 nM; in test [12], 63 nM. Further, the GI50 in test [13] turned out to be 34 nM; in [14] it was 70 nM; in [15] it was 270 nM; in test [16], 77 nM; in [17], 29 nM; in test [18] it was 50 nM. Also, the figures for the GI50 in test [19] and in test [20] were 29 nM and 910 nM, respectively. In addition, the “IC50 HDAC7” value against HDAC7 is given as “no activity”.
